The assay has as its system hypothalamic gene expression. As to the kind of experiment: Hypothalamic RNA-seq and RT-QPCR. It counts as in vivo, mouse. As to the method:
Fresh hypothalamus tissue was lysed in TRIzol® using a rotor stator homogenizer. TRIzol samples were frozen at −20° C. in microfuge tubes until purified (2 weeks to 5 months). […] Purified RNA was then DNAse-treated using TURBO DNA-free™ Kit (ThermoFisher #AM1907) according to manufacturer's instructions, diluted to 60 ng/μL in nuclease-free water, and stored at −80° C.
RNA sequencing and library preparation was performed by Virginia Tech's Genomics Sequencing Center facility at the Fralin Life Sciences Institute. […] The library was enriched by 14 cycles of PCR, validated using Agilent TapeStation, and quantitated by qPCR. Individually indexed cDNA libraries were pooled and sequenced on NextSeq 75 SR. The Illumina NextSeq Control Software v2.1.0.32 with Real Time Analysis RTA v2.4.11.0 was used to provide the management and execution of the NextSeq 500 and to generate binary base call (BCL) files. The BCL files were converted to FASTQ files, adapters trimmed, and demul-tiplexed using bcl2fastq Conversion Software v2.20. FASTQ files were aligned to mouse genome GRCm38.p6 using the Geneious RNA assembler 2 Jan. […] Raw read counts were quantified to gene and/or transcript annotations with loss of strand-specificity. Differential expression analysis across experimental conditions was performed using the DESeq2 plugin in Geneious Prime. Default settings for filtering low-expression mapped genetic features were used for the DESeq2 plugin. False discovery rate (FDR) was calculated using the Benjamini-Hochberg procedure with a threshold for significance of FDR <0.10. Additionally, raw read counts were used to quantify differential expression through edgeR and voom using the DEApp online webserver. Low-expression mapped genetic features were removed with log 2CPM <1 in 2 or more samples. The results from the three differential expression methodologies, DESeq2, edgeR, and voom, were compared using R and spreadsheet software such as Microsoft Excel. Differentially expressed genes were analyzed for gene-ontology enrichment with MouseMine.
Reactions of 10 μL were performed using 150 nM final primer concentration. […] A 90 ng measure of RNA was used per 10 μL reaction. Two to three technical replicates were performed. Control reactions for each sample (minus reverse-transcriptase and minus template controls) were used for quality control. […] Quality-control measures including melt-curve analysis, technical replicate analysis, etc., were analyzed by thermocycler software and by operator; any major errors were excluded from analysis when deemed appropriate by the quality-control software, and/or new samples and plates were run. Candidate reference genes for ddCT analysis were analyzed and mouse beta-actin was chosen as the reference gene control for all experiments.
The numbers of samples in statistical tests are described in respective figures. The 2ddCT method of relative quantification was used. Statistical significance tests were performed on respective ddCT values, from which Relative Quantification values were derived. A two-way ANOVA with Bonferroni correction was used for relative expression of RNA normalized to WT or control conditions.

For conjugated linoleic acid [CLA], under “QPCR, p=0.01”, the “Chmp1b mRNA, verification QPCR” value is recorded as “increase was maintained”. For the same substance, for the setting “QPCR, p=0.22”, the “Retreg2 mRNA, validation QPCR” value was “not significant”. Besides, for the setting “RNA-seq”, the “Genes up-regulated by CLA diet” value turned out to be 135 genes. Under “RNA-seq, CLA diet treatment on PWS mice”, the “Retreg2 mRNA reduction” value was found to be 0.89 fold. Also, for the setting “RNA-seq, WT and PWS hypothalamus”, the “Differentially expressed genes between control diet and CLA diets” value was 431 genes. The “Chmp1b mRNA increase with CLA diet” value (RNA-seq, both genotypes) was found to be 1.27 fold. The “Mael expression in PWS mice” value (RNA-seq, not confirmed by RT-QPCR) is reported as “rescued”. The “Gene Ontology enrichment, WT response to CLA diet” value (WT only) was “starvation, nutrient levels, and cellular stress were significantly enriched”. In addition, the “Gene Ontology enrichment, CLA vs control” value (all genotypes) was “significantly enriched processes related to ribosomal RNA processing, cellular metabolic processes, and aging, lethality, or survival processes”.
